The text below walks through data of patent publication US8846694B2, “Pyrrolidone derivatives for use as MetAP-2 inhibitors” (Merck Patent GmbH, priority 2008, dated 2014).

By IC50 is commonly meant the point on the concentration scale where inhibition reaches its midpoint.

Where a name gives a salt, the structure may show the parent alone.

The target of this assay is MetAP-2 (Homo sapiens, UniProt P50579). Nature of the assay: MetAP-2 activity measurement (coupled enzymatic reactions, substrate Met-Arg-Ser, photometric at 450 nm). Type of assay: biochemical. Conditions: read-out: IC50 enzyme (Inhibition of MetAP-2). The method, then: MetAP-2 Activity Measurement
Sequence of MetAP-2 (P50579 whole entry, species assumed): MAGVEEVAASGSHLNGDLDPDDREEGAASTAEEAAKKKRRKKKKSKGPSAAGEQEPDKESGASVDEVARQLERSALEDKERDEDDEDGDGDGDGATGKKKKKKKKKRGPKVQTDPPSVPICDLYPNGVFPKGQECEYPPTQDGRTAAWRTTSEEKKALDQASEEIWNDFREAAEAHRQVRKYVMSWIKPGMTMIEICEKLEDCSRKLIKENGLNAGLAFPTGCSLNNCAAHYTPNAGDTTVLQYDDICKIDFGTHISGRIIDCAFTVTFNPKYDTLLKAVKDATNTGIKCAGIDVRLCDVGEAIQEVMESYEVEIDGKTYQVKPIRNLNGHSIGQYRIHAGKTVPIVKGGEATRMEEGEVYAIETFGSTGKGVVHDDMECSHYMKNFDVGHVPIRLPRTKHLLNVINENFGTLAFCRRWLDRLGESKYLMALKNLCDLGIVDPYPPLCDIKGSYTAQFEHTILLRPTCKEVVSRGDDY
The MetAP-2 activity is determined by coupling enzymatic reactions. The tripeptide Met-Arg-Ser (MAS) is employed as substrate. The methionine liberated is firstly converted into Metox and H2O2 by L-aminooxidase (AAO). In the second step, the peroxidase (POD) with the aid of the H2O2 catalyses the oxidation of the leukodye dianisidine to dianisidineox, the increase of which is detected photometrically at 450 nm.
MetAP-2 activity can be recorded continuously as kinetics. The reaction scheme illustrates that one mol of dianisidineox is formed per mol of methionene. The MetAP-2 enzyme activity can therefore be calculated directly as Δ absorption per time unit. […] of the MetAP-2 activity (mol of Met/time unit) is possible with the aid of the dianisidineox extinction coefficient.
The change in extinction per time unit is depicted graphically and a slope calculation is carried out in the visually linear region of the reaction.
With `CCCN1CCN(Cc2ccc(OC[C@H]3CCCN3c3ncnc4[nH]cnc34)c3ccccc23)CC1` [A110, 6-{(R)-2-[4-(4-Propylpiperazin-1-ylmethyl)-naphthalen-1-yloxymethyl]pyrrolidin-1-yl}-9H-purine], the IC50 was in the range of 10 to 1000 nM.

On to `c1ccc2c(NC[C@H]3CCCN3c3ncnc4[nH]cnc34)cccc2c1` [A108, Naphthalen-1-yl[(R)-1-(9H-purin-6-yl)pyrrolidin-2-ylmethyl]amine], for which the IC50 is greater than 10000 nM.

As for `CC(C)(C)OC(=O)N[C@@H](CCC(N)=O)C(=O)N1CCc2cccc(OC[C@H]3CCCN3c3ncnc4[nH]cnc34)c2C1` [A187, tert-Butyl ((S)-3-carbamoyl-1-{8-[(R)-1-(9H-purin-6-yl)pyrrolidin-2-ylmethoxy]-3,4-dihydro-1H-isoquinoline-2-carbonyl}propyl)carbamate], the IC50 lay within 1000 to 10000 nM.

Turning to `O=[N+]([O-])c1ccc2cccc(OC[C@H]3CCCN3c3ncnc4[nH]cnc34)c2c1` [A142, 6-[(R)-2-(7-Nitronaphthalen-1-yloxymethyl)-pyrrolidin-1-yl]-9H-purine], the IC50 lay in the range of 10 to 1000 nM.

As to `O=C(O)/C=C/c1ccccc1OC[C@H]1CCCN1c1ncnc2[nH]cnc12` [A76, (E)-3-{2-[(R)-1-(9H-Purin-6-yl)pyrrolidin-2-yl-methoxy]phenyl}acrylic acid], the IC50 is greater than 10000 nM.

With `O=C(NCC1CC(O)C1)c1cc(OC[C@H]2CCCN2c2ncnc3[nH]cnc23)c2ccccc2n1` (stereo partly drawn) [A88, N-(3-Hydroxycyclobutylmethyl)-4-[(R)-1-(9H-purin-6-yl)pyrrolidin-2-ylmethoxy]quinoline-2-carboxamide], the IC50 was 10 to 1000 nM.

For the compound `CC(C)(C)OC(=O)N[C@@H](CCC(N)=O)C(=O)Nc1ccc2cccc(OC[C@H]3CCCN3c3ncnc4[nH]cnc34)c2c1` [A161, tert-Butyl ((S)-3-carbamoyl-1-{8-[(R)-1-(9H-purin-6-yl)pyrrolidin-2-ylmethoxy]naphthalen-2-ylcarbamoyl}propyl)carbamate], the IC50 lay in the range of 1000 to 10000 nM.

As to `O=C1CCCc2c(OC[C@H]3CCCN3c3ncnc4[nH]cnc34)cccc21` [A51], the IC50 lay within 10 to 1000 nM.

For the compound `CN(C)C(=O)CC1CCc2c(OC[C@H]3CCCN3c3ncnc4[nH]cnc34)cccc2C1=O` (stereo partly drawn) [A173, N,N-Dimethyl-2-{1-oxo-5-[(R)-1-(9H-purin-6-yl)-pyrrolidin-2-ylmethoxy]-1,2,3,4-tetrahydro-naphthalen-2-yl}acetamide], the IC50 lay in the range of 10 to 1000 nM.

As to `O=c1c2ccccc2ccn1C[C@H]1CCCN1c1ncnc2[nH]cnc12` [A59, 2-[(R)-1-(9H-Purin-6-yl)pyrrolidin-2-ylmethyl]-2H-isoquinolin-1-one], the half-maximal inhibitory concentration (IC50) was greater than 10000 nM.

For the compound `N[C@@H](Cc1c[nH]cn1)C(=O)Nc1ccc2cccc(OC[C@H]3CCCN3c3ncnc4[nH]cnc34)c2c1` [A164, (S)-2-Amino-3-(1H-imidazol-4-yl)-N-{8-[(R)-1-(9H-purin-6-yl)pyrrolidin-2-ylmethoxy]-naphthalen-2-yl}propionamide * HCl], the IC50 lay in the range of 1000 to 10000 nM.

`COC(=O)c1cccc(-c2ncc(OC[C@H]3CCCN3c3ncnc4[nH]cnc34)cn2)c1` [A65, Methyl 3-{5-[(R)-1-(9H-purin-6-yl)pyrrolidin-2-yl-methoxy]pyrimidin-2-yl}benzoate]: the IC50 was 10 to 1000 nM.

Turning to `O=C(NCc1ccco1)N1CCN(c2ccc3cccc(OC[C@H]4CCCN4c4ncnc5[nH]cnc45)c3c2)CC1` [A156, N-(Furan-2-ylmethyl)-4-{8-[(R)-1-(9H-purin-6-yl)-pyrrolidin-2-ylmethoxy]naphthalen-2-yl}-piperazine-1-carboxamide], the IC50 lay within 1000 to 10000 nM.

As to `CC(C)(C)OC(=O)NCC(=O)N1CCN(c2ccc3cccc(OC[C@H]4CCCN4c4ncnc5[nH]cnc45)c3c2)CC1` [A167, tert-Butyl [2-oxo-2-(4-{8-[(R)-1-(9H-purin-6-yl)-pyrrolidin-2-ylmethoxy]naphthalen-2-yl}-piperazin-1-yl)ethyl]carbamate], the IC50 was in the range of 1000 to 10000 nM.

Regarding `c1ccc(CN2CCN(c3ccc4cccc(OC[C@H]5CCCN5c5ncnc6[nH]cnc56)c4c3)CC2)cc1` [A106, 6-{(R)-2-[7-(4-Benzylpiperazin-1-yl)naphthalen-1-yloxymethyl]pyrrolidin-1-yI}-9H-purine], the IC50 was greater than 10000 nM.

As for `CC(C)(C)OC(=O)N[C@@H](Cc1c[nH]cn1)C(=O)N1CCc2cccc(OC[C@H]3CCCN3c3ncnc4[nH]cnc34)c2C1` [A189, tert-Butyl ((S)-1-(1H-imidazol-4-ylmethyl)-2-oxo-2-{8-[(R)-1-(9H-purin-6-yl)pyrrolidin-2-yl-methoxy]-3,4-dihydro-1H-isoquinolin-2-yl}ethyl)-carbamate], the IC50 is 1000 to 10000 nM.

As to `CC(=O)N(Cc1ccc(OC[C@H]2CCCN2c2ncnc3[nH]cnc23)c2ccccc12)CC(O)CO` (stereo partly drawn) [A100, N-(2,3-Dihydroxypropyl)-N-{4-[(R)-1-(9H-purin-6-yl)pyrrolidin-2-ylmethoxy]naphthalen-1-yl-methyl}acetamide], the IC50 lay in the range of 10 to 1000 nM.

Take `O=C1CCc2cccc(OC[C@H]3CCCN3c3ncnc4[nH]cnc34)c2C1` [A121, 8-[(R)-1-(9H-Purin-6-yl)pyrrolidin-2-ylmethoxy]-3,4-dihydro-1H-naphthalen-2-one]: the IC50 fell in the range of 1000 to 10000 nM.

Turning to `c1ccc2c(NCCN3CCOCC3)ncc(OC[C@H]3CCCN3c3ncnc4[nH]cnc34)c2c1` [A172, (2-Morpholin-4-ylethyl)-{4-[(R)-1-(9H-purin-6-yl)-pyrrolidin-2-ylmethoxy]isoquinolin-1-yl}amine], the IC50 lay in the range of 1000 to 10000 nM.

For `O=C(NCc1ccco1)Nc1ccc2cccc(OC[C@H]3CCCN3c3ncnc4[nH]cnc34)c2c1` [A159, 1-Furan-2-ylmethyl-3-{8-[(R)-1-(9H-purin-6-yl)-pyrrolidin-2-ylmethoxy]naphthalen-2-yl}urea], the IC50 was 1000 to 10000 nM.

As to `NC(=O)C[C@@H](N)C(=O)N1CCc2cccc(OC[C@H]3CCCN3c3ncnc4[nH]cnc34)c2C1` [A194, (R)-3-Amino-4-oxo-4-{8-[(R)-1-(9H-purin-6-yl)-pyrrolidin-2-ylmethoxy]-3,4-dihydro-1H-isoquinolin-2-yl}butyramide], the IC50 is 10 to 1000 nM.

Consider `OC1CN(C2CCc3cccc(OC[C@H]4CCCN4c4ncnc5[nH]cnc45)c3C2)C1` (stereo partly drawn) [A170, 1-{8-[(R)-1-(9H-Purin-6-yl)pyrrolidin-2-yl-methoxy]-1,2,3,4-tetrahydronaphthalen-2-yl}azetidin-3-ol], for which the concentration for half-maximal inhibition (IC50) lay within 10 to 1000 nM.

Take `NC(=O)C[C@H](N)C(=O)N1CCc2cccc(OC[C@H]3CCCN3c3ncnc4[nH]cnc34)c2C1` [A201, (S)-3-Amino-4-oxo-4-{8-[(R)-1-(9H-purin-6-yl)-pyrrolidin-2-ylmethoxy]-3,4-dihydro-1H-isoquinolin-2-yl}butyramide]: the IC50 fell in the range of 1000 to 10000 nM.

As for `Cc1cc2c(OC[C@H]3CCCN3c3ncnc4[nH]cnc34)cccc2n1C(=O)C(F)(F)F` [A75, 2,2,2-Trifluoro-1-{2-methyl-4-[(R)-1-(9H-purin-6-yl)pyrrolidin-2-ylmethoxy]indol-1-yl}ethanone], the IC50 was in the range of 1000 to 10000 nM.

Take `Cn1ncc(Cl)c1C[C@@H]1CCc2c(OC[C@H]3CCCN3c3ncnc4[nH]cnc34)cccc2C1=O` [A125, (S)-2-(4-Chloro-2-methyl-2H-pyrazol-3-yl-methyl)-5-[(R)-1-(9H-purin-6-yl)pyrrolidin-2-yl-methoxy]-3,4-dihydro-2H-naphthalen-1-one]: the IC50 was in the range of 10 to 1000 nM.

Consider `Nn1cnc2c(N3CCC[C@@H]3COc3cccc4ccccc34)ncnc21` [A25, 6-[(R)-2-(Naphthalen-1-yloxymethyl)pyrrolidin-1-yl]purin-9-ylamine], for which the IC50 fell in the range of 1000 to 10000 nM.

In the case of `c1cc2c(c(OC[C@H]3CCCN3c3ncnc4[nH]cnc34)c1)CNCC2` [A122, 8-[(R)-1-(9H-Purin-6-yl)pyrrolidin-2-ylmethoxy]-1,2,3,4-tetrahydroisoquinoline], the IC50 lay within 10 to 1000 nM.

With `CCN(CC)C(=O)c1cc2cccc(OC[C@H]3CCCN3c3ncnc4[nH]cnc34)c2cc1O` [A127, N,N-Diethyl-3-hydroxy-5-[(R)-1-(9H-purin-6-yl)-pyrrolidin-2-ylmethoxy]naphthalene-2-carboxamide], the IC50 fell in the range of 10 to 1000 nM.

For `CC(=O)NC1CCN(C2CCc3cccc(OC[C@H]4CCCN4c4ncnc5[nH]cnc45)c3C2)C1` (stereo partly drawn) [A171, N-(1-{8-[(R)-1-(9H-Purin-6-yl)pyrrolidin-2-yl-methoxy]-1,2,3,4-tetrahydronaphthalen-2-yl}pyrrolidin-3-yl)acetamide], the IC50 fell in the range of 1000 to 10000 nM.

Take `Clc1cccc(/C=C/[C@H]2CCCN2c2ncnc3[nH]cnc23)c1` [A11, 6-{(R)-2-[(E)-2-(3-chlorophenyl)vinyl]pyrrolidin-1-yl}-9H-purine]: the IC50 was 1000 to 10000 nM.

For “2-[1-(1H-imidazol-4-yl)meth-(Z)-ylidene]-5-[(R)-1-(9H-purin-6-yl)pyrrolidin-2-ylmethoxy]-3,4-dihydro-2H-naphthalen-1-one [A15]”, the IC50 was in the range of 10 to 1000 nM.

For the compound `c1ccc2c(OC[C@H]3CCCN3c3ncnc4[nH]cnc34)cncc2c1` [A148, 4-[(R)-1-(9H-Purin-6-yl)pyrrolidin-2-yl-methoxy]isoquinoline], the IC50 is 10 to 1000 nM.

Consider `O=C(NC1CCCC1)c1cc(OC[C@H]2CCCN2c2ncnc3[nH]cnc23)c2ccccc2n1` [A69, N-Cyclopentyl-4-[(R)-1-(9H-purin-6-yl)-pyrrolidin-2-ylmethoxy]quinoline-2-carboxamide], for which the IC50 fell in the range of 1000 to 10000 nM.

Turning to `c1ccc2c(OC[C@H]3CCCN3c3ncnc4[nH]cnc34)ccc(CN3CCN(C4CCCC4)CC3)c2c1` [A112, 6-{(R)-2-[4-(4-Cyclopentylpiperazin-1-yl-methyl)naphthalen-1-yloxymethyl]pyrrolidin-1-yl}-9H-purine], the IC50 was 10 to 1000 nM.
